The values that follow come from patent US11198713B2, “Agents modulating beta-catenin functions and methods thereof” (FOG PHARMACEUTICALS, INC., priority 2017, dated 2021).

This experiment has as its target T1, full-length beta-catenin (Axin site) (Homo sapiens, UniProt P35222).
T1 construct: 15 nM full-length beta-catenin, 20 nM FITC labeled peptide in buffer
T1 sequence (P35222 1-781): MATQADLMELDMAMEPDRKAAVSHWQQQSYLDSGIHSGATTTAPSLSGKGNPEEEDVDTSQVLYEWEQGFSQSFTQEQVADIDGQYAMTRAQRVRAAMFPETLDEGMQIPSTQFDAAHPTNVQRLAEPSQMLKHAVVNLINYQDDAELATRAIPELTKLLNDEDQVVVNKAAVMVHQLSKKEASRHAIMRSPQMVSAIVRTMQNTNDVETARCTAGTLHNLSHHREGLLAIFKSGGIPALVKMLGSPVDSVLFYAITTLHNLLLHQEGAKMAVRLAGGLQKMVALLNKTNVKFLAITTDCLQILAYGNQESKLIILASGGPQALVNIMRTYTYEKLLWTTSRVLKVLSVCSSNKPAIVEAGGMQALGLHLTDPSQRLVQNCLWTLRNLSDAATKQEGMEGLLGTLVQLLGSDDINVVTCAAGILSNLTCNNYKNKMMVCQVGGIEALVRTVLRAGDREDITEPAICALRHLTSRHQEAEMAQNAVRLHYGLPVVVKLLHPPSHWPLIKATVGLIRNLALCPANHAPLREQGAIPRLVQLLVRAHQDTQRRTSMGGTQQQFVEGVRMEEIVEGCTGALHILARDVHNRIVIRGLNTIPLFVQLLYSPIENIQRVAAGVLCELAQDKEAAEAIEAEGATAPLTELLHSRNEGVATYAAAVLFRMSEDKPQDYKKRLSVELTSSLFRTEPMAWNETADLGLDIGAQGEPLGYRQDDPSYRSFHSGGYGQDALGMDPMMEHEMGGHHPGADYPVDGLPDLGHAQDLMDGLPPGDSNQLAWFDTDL
As to the kind of experiment: Competition fluorescence polarization assay (Axin site probe). To be noted: competition fluorescence polarization, Table 2; read-out: in vitro FP EC50. The format is binding. The procedure:
FIG. 1. […] Peptide solutions were prepared in buffer (50 mM Tris pH 8.0, 250 mM NaCl, 2% glycerol, 0.5 mM EDTA, 0.02% w/v sodium azide) using a 3-fold serial dilution from 5 μM. Probe solution (15 nM full-length 13-Catenin, 20 nM FITC labeled peptide (FITC-PEG1-PQ-S5-ILD-S5-HVRRVWR (SEQ ID NO: 1) (hydrocarbon staple formed by two S5 via olefin metathesis)) in buffer) was prepared and incubated for 5 minutes, then 40 μL per well plated in a black polystyrene 384-well plate (Corning). Equal volume of the titrated peptide was added to the plate and incubated protected from light for 15 minutes prior to read. Reads were performed on a Spectramax M5 (Molecular Devices) in duplicate.
FIG. 7. […] BCL9 Competition FP assay: Peptide solutions were prepared in buffer (50 mM Tris pH 8.0, 250 mM NaCl, 2% glycerol, 0.5 mM EDTA, 0.02% w/v sodium azide) using a 3-fold serial dilution from 10 μM. Probe solution (250 nM full-length beta-catenin, 20 nM 5FAM labeled peptide in buffer) was prepared and 40 μL per well plated in a black polystyrene 384-well plate (Corning). Equal volume of the titrated peptide was added to the plate and incubated protected from light for 15 minutes prior to read. Reads were performed on a Spectramax M5 (Molecular Devices) in duplicate. Probe: Ac-[…]nLeu-Leu-2NapA-bala-bala-Lys5FAM-NH2 (SEQ ID NO: 2) (from Biochemistry, 2009, 48 (40), pp 9534-9541). Axin Competition FP assay: Peptide solutions were prepared in buffer (50 mM Tris pH 8.0, 250 mM NaCl, 2% glycerol, 0.5 mM EDTA, 0.02% w/v sodium azide) using a 3-fold serial dilution from 5 μM. Probe solution (15 nM full-length beta-catenin, 20 nM FITC labeled peptide in buffer) was prepared and incubated for 5 minutes, then 40 μL per well plated in a black polystyrene 384-well plate (Corning). Equal volume of the titrated peptide was added to the plate and incubated protected from light for 15 minutes prior to read. Reads were performed on a Spectramax M5 (Molecular Devices) in duplicate. Probe: FITC-StAx-33 from Grossmann et al. PNAS 109 17942-17947.
Broadly, the EC50 is the concentration that produces a half-maximal response. With `CC[C@H](C)[C@@H]1NC(=O)[C@H](Cc2c[nH]cn2)NC(=O)[C@H](C)NC(=O)[C@H](CC(=O)O)NC(=O)[C@H](CC(C)C)NC(=O)[C@H]([C@@H](C)CC)NC(=O)[C@](C)(NC(=O)[C@H](C)NC(C)=O)CCCCCCC=CCOC(=O)N2CC[C@@](C(=O)N[C@@H](Cc3cccc4ccccc34)C(=O)N[C@H](C(=O)N[C@@H](Cc3c[nH]c4ccccc34)C(N)=O)C(C)C)(C2)NC1=O` (single isomer, unassigned) [FP0365c Isomer 2, Ac-A-R8-I-L-D-A-H-I-MB-1NapA-V-W-NH2], the EC50 was 500 to 5000 nM.
For `CC[C@H](C)[C@@H]1NC(=O)[C@H](Cc2c[nH]cn2)NC(=O)[C@H](C)NC(=O)[C@H](CC(=O)O)NC(=O)[C@H](CC(C)C)NC(=O)[C@H]([C@@H](C)CC)NC(=O)[C@](C)(NC(=O)[C@H](C)NC(C)=O)CCCCCCC=CCOC(=O)N2CC[C@@](C(=O)N[C@@H](Cc3cccc4ccccc34)C(=O)N[C@H](C(=O)N[C@@H](Cc3c[nH]c4ccccc34)C(N)=O)C(C)C)(C2)NC1=O` (single isomer, unassigned) [FP0365c, Ac-A-R8-I-L-D-A-H-I-MB-1NapA-V-W-NH2], the EC50 lay within 100 to 500 nM.
For the compound `CC[C@H](C)[C@@H]1NC(=O)[C@H](Cc2c[nH]cn2)NC(=O)[C@H](C)NC(=O)[C@H](CC(=O)O)NC(=O)[C@H](CC(C)C)NC(=O)[C@H]([C@@H](C)CC)NC(=O)[C@](C)(NC(=O)[C@H](C)NC(C)=O)CCCCC=CCOC(=O)N(C)CC[C@@](C)(C(=O)N[C@@H](CCCNC(=N)N)C(=O)N[C@H](C(=O)N[C@@H](Cc2c[nH]c3ccccc23)C(N)=O)C(C)C)NC1=O` (single isomer, unassigned) [FP0502c Isomer 1, Ac-A-R6-I-L-D-A-H-I-MF-R-V-W-NH2], the half-maximal effective concentration (EC50) is less than 100 nM.
Consider `CC[C@H](C)[C@@H]1NC(=O)[C@H](Cc2c[nH]cn2)NC(=O)[C@H](C)NC(=O)[C@H](CC(=O)O)NC(=O)[C@H](CC(C)C)NC(=O)[C@H]([C@@H](C)CC)NC(=O)[C@](C)(NC(=O)[C@H](C)NC(C)=O)CCCCC=CCOC(=O)N(C)CC[C@@](C)(C(=O)N[C@@H](CCCNC(=N)N)C(=O)N[C@H](C(=O)N[C@@H](Cc2c[nH]c3ccccc23)C(N)=O)C(C)C)NC1=O` (single isomer, unassigned) [FP0502c Isomer 2, Ac-A-R6-I-L-D-A-H-I-MF-R-V-W-NH2], for which the EC50 was 100 to 500 nM.
For `CC[C@H](C)[C@@H]1NC(=O)[C@H](Cc2c[nH]cn2)NC(=O)[C@H](C)NC(=O)[C@H](CC(=O)O)NC(=O)[C@H](CC(C)C)NC(=O)[C@H]([C@@H](C)CC)NC(=O)[C@](C)(NC(=O)[C@H](C)NC(C)=O)CCCN(C)C(=O)OCC=CCCC[C@@](C)(C(=O)N[C@@H](CCCNC(=N)N)C(=O)N[C@H](C(=O)N[C@@H](Cc2c[nH]c3ccccc23)C(N)=O)C(C)C)NC1=O` (single isomer, unassigned) [FP0506c Isomer 1, Ac-A-MI-I-L-D-A-H-I-S5-R-V-W-NH2], the EC50 fell in the range of 100 to 500 nM.
Take `CC[C@H](C)[C@@H]1NC(=O)[C@H](Cc2c[nH]cn2)NC(=O)[C@H](C)NC(=O)[C@H](CC(=O)O)NC(=O)[C@H](CC(C)C)NC(=O)[C@H]([C@@H](C)CC)NC(=O)[C@](C)(NC(=O)[C@H](C)NC(C)=O)CCCN(C)C(=O)OCC=CCCC[C@@](C)(C(=O)N[C@@H](CCCNC(=N)N)C(=O)N[C@H](C(=O)N[C@@H](Cc2c[nH]c3ccccc23)C(N)=O)C(C)C)NC1=O` (single isomer, unassigned) [FP0506c Isomer 2, Ac-A-MI-I-L-D-A-H-I-S5-R-V-W-NH2]: the EC50 was less than 100 nM.
For `CC[C@H](C)[C@@H]1NC(=O)[C@H](Cc2c[nH]cn2)NC(=O)[C@H](C)NC(=O)[C@H](CC(=O)O)NC(=O)[C@H](CC(C)C)NC(=O)[C@H]([C@@H](C)CC)NC(=O)[C@](C)(NC(=O)[C@H](C)NC(C)=O)CCCCCC=CCN2CC(C(=O)N[C@@H](CCCNC(=N)N)C(=O)N[C@H](C(=O)N[C@@H](Cc3c[nH]c4ccccc34)C(N)=O)C(C)C)(C2)NC1=O` (single isomer, unassigned) [FP0516a Isomer 1, Ac-A-R7-I-L-D-A-H-I-MA-R-V-W-NH2], the EC50 is 100 to 500 nM.
